Where no end group is shown, it is not given here. [ ]: non-standard residue; d: D form. Lys(Me3) = C[N+](C)(C)CCCC[C@H](N)C(=O)O
Experiments:
[1] = test system: recombinant HP1β; experiment: Fluorescence polarization binding assay; design: species or system human; conditions: fluorescein-labeled peptide, averaged from three independent titration reactions
[2] = test system: wild type FLAG-tagged ADNP; experiment: H3K9me3 peptide pulldown, recruitment of ADNP by mutant HP1β; format: binding; conditions: compared to wild type HP1β; wild type FLAG-tagged ADNP in TNT reticulocyte extract; western blot
[3] = test system: H3K9me3 peptide; experiment: H3K9me3 peptide pulldown with mutant HP1β; format: binding; conditions: H3K9me3 peptides on magnetic beads; with ADNP-FLAG; western blot
[4] = test system: PxVxL; conditions: ref [27]; cited from earlier work
Description: (§1) We analyzed this recombinant, mutant HP1βprotein in H3K9me3 peptide pulldown experiments with wild type FLAG-tagged ADNP expressed in TNT reticulocyte extract (Figure 5D). W170A mutation had no effect on HP1β bi ...

[5] = test system: HP1 dimerization and H3K9me3; conditions: ref [27]; cited from earlier work
Description: as §1

[6] = test system: HP1 isoform proteins; format: binding, human
[7] = test system: FLAG-tagged ADNP; experiment: H3 peptide pulldown with TNT-expressed FLAG-tagged ADNP; format: binding; conditions: TNT reticulocyte extract, western blot
[8] = test system: three isoforms of HP1, HP1α HP1β and HP1γ, and CDYL1; experiment: H3 peptide pulldown of HeLa S3 nuclear extract, MS/MS identification; format: binding; conditions: SDS-PAGE
[9] = test system: ADNP; experiment: H3 peptide pulldown of HeLa S3 nuclear extract, western blot; format: binding; conditions: immobilized H3 (aa 1-21) peptides on magnetic beads, monoclonal anti-ADNP
[10] = test system: pericentromeric heterochromatin in NIH3T3 cells; experiment: Localization of YFP-ADNP fusion proteins in living NIH3T3 cells; format: cell-based, mouse; conditions: inducible stable NIH3T3 lines, unfixed; for localization to pericentromeric heterochromatin: Hoechst 33342
[11] = test system: H3K9me3 peptide; format: binding
[12] = test system: pericentromeric heterochromatin in NIH3T3 cells; experiment: Localization of CFP-ADNP constructs in living NIH3T3 cells; format: cell-based, mouse; conditions: transient co-expression with RFP-HP1β; unfixed, living cells of low expression level; confocal

Molecule: EDDSYEAR[Lys(Me3)]SFLTKY [ADNPK767me3 (FP peptide), ADNPK767me3 peptide used for FP measurements]
- HP1 binding [1]: does not bind
- HP1 binding ([1]; listed as methylated peptide spanning the ADNP ARKS region): did not detect binding

Molecule: HP1β W170A: recombinant His6-HP1β with tryptophan 170 mutated to alanine
- recruitment of ADNP to H3K9me3 in presence of mutant HP1β [2]: severely impaired
- HP1β binding to H3K9me3 peptide [3]: no effect on HP1β binding to the H3K9me3 peptide
- HP1-PxVxL interaction [4]: abolish HP1-PxVxL interaction
- HP1 dimerization and H3K9me3 binding [5]: without affecting HP1 dimerization and H3K9me3 binding

Molecule: H3K9me3: H3 (aa 1-21) peptide trimethylated at lysine 9, used for pulldown
- recruitment of HP1 isoform proteins to peptide [6]: concomitant with recruitment of the different HP1 isoform proteins to the H3K9me3 matrix
- binding of ADNP to peptide ([7]; co-incubated with recombinant HP1α): bound specifically to the H3K9me3 peptide
- binding of ADNP to peptide ([7]; co-incubated with recombinant HP1β): bound specifically to the H3K9me3 peptide
- binding of ADNP to peptide ([7]; co-incubated with recombinant HP1γ): bound specifically to the H3K9me3 peptide
- binding of ADNP to peptide ([7]; without HP1): did not bind to any of the differentially loaded beads
- proteins specifically interacting with H3 tail depending on K9me3 [8]: several known H3K9me3 interaction partners like the three isoforms of HP1
- enrichment of ADNP on peptide matrix [9]: specific enrichment of ADNP exclusively on the H3K9me3 matrix

B1: K767R: YFP-ADNP fusion protein with K767R mutation in ARKS motif (protein, UniProt Q9Z103 1-1108, looked up, variant K767R)
Activity-dependent …: MFQLPVNNLGSLRKARKTVKKILSDIGLEYCKEHIEDFKQFEPNDFYLKNTTWEDVGLWDPSLTKNQDYRTKPFCCSACPFSSKFFSAYKSHFRNVHSEDFENRILLNCPYCTFNADKKTLETHIKIFHAPNSSAPSSSLSTFKDKNKNDGLKPKQADNVEQAVYYCKKCTYRDPLYEIVRKHIYREHFQHVAAPYIAKAGEKSLNGAVSLGTNAREECNIHCKRCLFMPKSYEALVQHVIEDHERIGYQVTAMIGHTNVVVPRAKPLMLIAPKPQDKKGMGLPPRISSLASGNVRSLPSQQMVNRLSIPKPNLNSTGVNMMSNVHLQQNNYGVKSVGQSYGVGQSVRLGLGGNAPVSIPQQSQSVKQLLPSGNGRSFGLGAEQRPPAAARYSLQTANTSLPPGQVKSPSVSQSQASRVLGQSSSKPPPAATGPPPSNHCATQKWKICTICNELFPENVYSVHFEKEHKAEKVPAVANYIMKIHNFTSKCLYCNRYLPTDTLLNHMLIHGLSCPYCRSTFNDVEKMAAHMRMVHIDEEMGPKTDSTLSFDLTLQQGSHTNIHLLVTTYNLRDAPAESVAYHAQNNAPVPPKPQPKVQEKADVPVKSSPQAAVPYKKDVGKTLCPLCFSILKGPISDALAHHLRERHQVIQTVHPVEKKLTYKCIHCLGVYTSNMTASTITLHLVHCRGVGKTQNGQDKTNAPSRLNQSPGLAPVKRTYEQMEFPLLKKRKLEEDADSPSCFEEKPEEPVVLALDPKGHEDDSYEARRSFLTKYFNKQPYPTRREIEKLAASLWLWKSDIASHFSNKRKKCVRDCEKYKPGVLLGFNMKELNKVKHEMDFDAEWLFENHDEKDSRVNASKTVDKKHNLGKEDDSFSDSFEHLEEESNGSGSPFDPVFEVEPKIPSDNLEEPVPKVIPEGALESEKLDQKEEEEEEEEEDGSKYETIHLTEEPAKLMHDASDSEVDQDDVVEWKDGASPSESGPGSQQISDFEDNTCEMKPGTWSDESSQSEDARSSKPAAKKKATVQDDTEQLKWKNSSYGKVEGFWSKDQSQWENASENAERLPNPQIEWQNSTIDSEDGEQFDSMTDGVADPMHGSLTGVKLSSQQA
modifications: YFP fusion
notes: YFP-ADNP fusion protein with K767R mutation in ARKS motif
- localization to pericentromeric heterochromatin [10]: no effect on ADNP localization

B2: V821E: YFP-ADNP fusion protein with V821E mutation in PGVLL motif (protein, UniProt Q9Z103 1-1108, looked up, variant V821E)
Activity-dependent …: MFQLPVNNLGSLRKARKTVKKILSDIGLEYCKEHIEDFKQFEPNDFYLKNTTWEDVGLWDPSLTKNQDYRTKPFCCSACPFSSKFFSAYKSHFRNVHSEDFENRILLNCPYCTFNADKKTLETHIKIFHAPNSSAPSSSLSTFKDKNKNDGLKPKQADNVEQAVYYCKKCTYRDPLYEIVRKHIYREHFQHVAAPYIAKAGEKSLNGAVSLGTNAREECNIHCKRCLFMPKSYEALVQHVIEDHERIGYQVTAMIGHTNVVVPRAKPLMLIAPKPQDKKGMGLPPRISSLASGNVRSLPSQQMVNRLSIPKPNLNSTGVNMMSNVHLQQNNYGVKSVGQSYGVGQSVRLGLGGNAPVSIPQQSQSVKQLLPSGNGRSFGLGAEQRPPAAARYSLQTANTSLPPGQVKSPSVSQSQASRVLGQSSSKPPPAATGPPPSNHCATQKWKICTICNELFPENVYSVHFEKEHKAEKVPAVANYIMKIHNFTSKCLYCNRYLPTDTLLNHMLIHGLSCPYCRSTFNDVEKMAAHMRMVHIDEEMGPKTDSTLSFDLTLQQGSHTNIHLLVTTYNLRDAPAESVAYHAQNNAPVPPKPQPKVQEKADVPVKSSPQAAVPYKKDVGKTLCPLCFSILKGPISDALAHHLRERHQVIQTVHPVEKKLTYKCIHCLGVYTSNMTASTITLHLVHCRGVGKTQNGQDKTNAPSRLNQSPGLAPVKRTYEQMEFPLLKKRKLEEDADSPSCFEEKPEEPVVLALDPKGHEDDSYEARKSFLTKYFNKQPYPTRREIEKLAASLWLWKSDIASHFSNKRKKCVRDCEKYKPGELLGFNMKELNKVKHEMDFDAEWLFENHDEKDSRVNASKTVDKKHNLGKEDDSFSDSFEHLEEESNGSGSPFDPVFEVEPKIPSDNLEEPVPKVIPEGALESEKLDQKEEEEEEEEEDGSKYETIHLTEEPAKLMHDASDSEVDQDDVVEWKDGASPSESGPGSQQISDFEDNTCEMKPGTWSDESSQSEDARSSKPAAKKKATVQDDTEQLKWKNSSYGKVEGFWSKDQSQWENASENAERLPNPQIEWQNSTIDSEDGEQFDSMTDGVADPMHGSLTGVKLSSQQA
modifications: YFP fusion
notes: YFP-ADNP fusion protein with V821E mutation in PGVLL motif
- localization to pericentromeric heterochromatin [10]: strong reduction of the ADNP signal at regions of pericentromeric heterochromatin
- residual signal at pericentromeric heterochromatin ([10]; in all cells analyzed): faint but significant signal

B3: K767R mutant ADNP: FLAG-tagged ADNP, lysine 767 within the ARKS motif changed to arginine (protein, UniProt Q9Z103 1-1108, looked up, variant K767R)
Activity-dependent …: MFQLPVNNLGSLRKARKTVKKILSDIGLEYCKEHIEDFKQFEPNDFYLKNTTWEDVGLWDPSLTKNQDYRTKPFCCSACPFSSKFFSAYKSHFRNVHSEDFENRILLNCPYCTFNADKKTLETHIKIFHAPNSSAPSSSLSTFKDKNKNDGLKPKQADNVEQAVYYCKKCTYRDPLYEIVRKHIYREHFQHVAAPYIAKAGEKSLNGAVSLGTNAREECNIHCKRCLFMPKSYEALVQHVIEDHERIGYQVTAMIGHTNVVVPRAKPLMLIAPKPQDKKGMGLPPRISSLASGNVRSLPSQQMVNRLSIPKPNLNSTGVNMMSNVHLQQNNYGVKSVGQSYGVGQSVRLGLGGNAPVSIPQQSQSVKQLLPSGNGRSFGLGAEQRPPAAARYSLQTANTSLPPGQVKSPSVSQSQASRVLGQSSSKPPPAATGPPPSNHCATQKWKICTICNELFPENVYSVHFEKEHKAEKVPAVANYIMKIHNFTSKCLYCNRYLPTDTLLNHMLIHGLSCPYCRSTFNDVEKMAAHMRMVHIDEEMGPKTDSTLSFDLTLQQGSHTNIHLLVTTYNLRDAPAESVAYHAQNNAPVPPKPQPKVQEKADVPVKSSPQAAVPYKKDVGKTLCPLCFSILKGPISDALAHHLRERHQVIQTVHPVEKKLTYKCIHCLGVYTSNMTASTITLHLVHCRGVGKTQNGQDKTNAPSRLNQSPGLAPVKRTYEQMEFPLLKKRKLEEDADSPSCFEEKPEEPVVLALDPKGHEDDSYEARRSFLTKYFNKQPYPTRREIEKLAASLWLWKSDIASHFSNKRKKCVRDCEKYKPGVLLGFNMKELNKVKHEMDFDAEWLFENHDEKDSRVNASKTVDKKHNLGKEDDSFSDSFEHLEEESNGSGSPFDPVFEVEPKIPSDNLEEPVPKVIPEGALESEKLDQKEEEEEEEEEDGSKYETIHLTEEPAKLMHDASDSEVDQDDVVEWKDGASPSESGPGSQQISDFEDNTCEMKPGTWSDESSQSEDARSSKPAAKKKATVQDDTEQLKWKNSSYGKVEGFWSKDQSQWENASENAERLPNPQIEWQNSTIDSEDGEQFDSMTDGVADPMHGSLTGVKLSSQQA
modifications: FLAG tag
notes: FLAG-tagged ADNP, lysine 767 within the ARKS motif changed to arginine
- binding of ADNP protein to H3K9me3 peptide [11]: bound to H3K9me3 peptide in a HP1β dependent manner

B4: CFP-ADNP(701-846): CFP fusion of the ADNP homeodomain alone, containing NLS (protein, UniProt Q9Z103 701-846, looked up, fragment)
chain: APSRLNQSPGLAPVKRTYEQMEFPLLKKRKLEEDADSPSCFEEKPEEPVVLALDPKGHEDDSYEARKSFLTKYFNKQPYPTRREIEKLAASLWLWKSDIASHFSNKRKKCVRDCEKYKPGVLLGFNMKELNKVKHEMDFDAEWLFE
modifications: CFP fusion
notes: CFP fusion of the ADNP homeodomain alone, containing NLS
- localization to pericentromeric heterochromatin [12]: co-localized with HP1β
